The values below come from patent US5409692A, “Glucosyltransferase inhibitors, as well as dental caries prevention methods and anticarious foods using the same” (priority 1990, dated 1995).

Data set [1] has as its system glucosyltransferase. Put plainly: Glucosyltransferase inhibition activity (insoluble glucan, absorbance at 550 nm). Conditions: 0.15 ml of 2,000 ppm sample solution in 3 ml total volume; pH 6.0, 37° C., 3 hours; control water. Type of data set: biochemical, S. mutans MT8148. The method, then: As an enzyme solution, was used an extract which was obtained by culturing S. mutans MT8148 strain on Todd-Hewitt medium and then extracting hyphae with 8M urea in accordance with the method proposed by Hamada et al. [S. Hamada et al., J. Gen. Microbiol., 35, 335- 344 (1999 )].
A reaction system was prepared by adding 0.15 ml of an aqueous solution of a sample, said solution having been prepared to contain the sample at the concentration of 2,000 ppm, the enzyme solution prepared from the S. mutans strain and water to 0.6 ml of 500 mM sodium phosphate buffer which had pH 6.0 and contained 5% of sucrose, 0.5% of dextran T10 and 0.5% of sodium azide. The water was added in an amount to give a total volume of 3 ml. They were reacted in a glass test tube. In the above measurement, the amount of the enzyme was set such that the absorbance at 550 nm became about 1.0 when reacted at 37° C. for 3 hours.
Resultant insoluble glucan was subjected to ultrasonic disintegration and the; absorbance (A) at 550 nm was measured. Using as control (B) the absorbance obtained from the use of water in place of the sample solution, the inhibition rate (%) was determined in accordance with the following calculation formula: [formula] (Measurement results )
The glucosyltransferase inhibition activities of the extracts of the various fermented tea leaves, said extracts having been obtained in Examples 1, 2 and 3, and of caffeine and catechins, which are representative components of tea leaves, were measured using the above reaction system.

Data set [2] has as its system S. mutans MT8148 strain. The data set is described as follows: Anti-plaque test (in vitro plaque formation). Type of data set: cell-based. Conditions: sample 5% in Dulbecco's modified Eagle's medium, 37° C., 1 day, anaerobic; Average ± S.D.; anticarious sugar of Example 10. Here is the method:
The test was carried out in the following manner. Culture media were prepared by adding the test samples at the concentration of 5% to Dulbecco's modified Eagle's medium, respectively. 6-ml Portions of the media were added to glass test tubes, respectively, to which S. mutans MT8148 strain was planted. After the cells were cultured at 37° C. for 1 day under anaerobic conditions, the amounts of plaque adhered on the walls of the respective test tubes were weighed.

Data set [3] can be described thus: Solubility in distilled water. Conditions: for solubility: distilled water, water. Format: physicochemical. An excerpt:
Sugar: Refined sugar (prime grade)
Palatinose: Crystalline palatinose

Data set [4] relates to glucosyltransferase. The data set is described as follows: Anti-glucan formation test. Format: biochemical, S. mutans MT8148. To be noted: 0.3 ml of 10% sample solution in 3 ml; pH 6.0, 37° C., 3 hours; relative to sugar. Here is the method:
To a mixture consisting of 0.3 ml of a 10% sample solution, 0.3 ml of 1M sodium phosphate buffer-which had pH 6.0 and contained 1.0% of dextran T10 and 1.0% of sodium azide--and a glucosyltransferase enzyme solution, water was added in an amount to give a total volume of 3 ml so that a reaction system was prepared. They were reacted in a glass test tube.
Insoluble glucan thus formed was subjected to ultrasonic disintegration, and the absorbance (A) at 550 nm was measured.
As the glucosyltransferase enzyme solution, was used an extract which was obtained by culturing S. mutans MT8148 strain on Todd-Hewitt medium and then extracting hyphae with 8M urea in accordance with the method proposed by Hamada et al. [S. Hamada et al., J. Gen. Microbiol., 135, 335-344 (1989)].

≈ marks a conversion by molar mass, not a printed value.

Usually solubility stands for the dissolved amount per volume that the medium holds.

Consider `Oc1cc(O)c2c(c1)OC(c1ccc(O)c(O)c1)C(O)C2` (stereo not shown) [Catechin], for which the “Inhibition rate, %” value in data set [1] came to 13%.
The same measure, in the same setting: as for `O=C(O[C@@H]1Cc2c(O)cc(O)cc2O[C@@H]1c1ccc(O)c(O)c1)c1cc(O)c(O)c(O)c1` [Epicatechin gallate], the figure is 19%; as for `Oc1cc(O)c2c(c1)O[C@H](c1ccc(O)c(O)c1)[C@H](O)C2` [Epicatechin], 14%.
With `Oc1cc(O)c2c(c1)O[C@H](c1cc(O)c(O)c(O)c1)[C@H](O)C2` [Epigallocatechin], the “Inhibition rate, %” value in data set [1] was 11%.
Same read-out and setting: for `Oc1cc(O)c2c(c1)O[C@H](c1cc(O)c(O)c(O)c1)[C@@H](O)C2` [Gallocatechin] the value was 15%.
Turning to `OC[C@H]1O[C@H](OC[C@H]2OC(O)(CO)[C@@H](O)[C@@H]2O)[C@H](O)[C@@H](O)[C@@H]1O` (stereo partly shown) [Palatinose, palatinose], in data set [2], the “Amount of plaque formed” value is 2.01 ± 0.22 mg. Besides, in data set [3], the “Solubility (in words)” value is reported as “low solubility especially at low temperatures”. Also, the solubility is 210 mg/mL (≈ 614 mM) in data set [3] (10° C.), 320 mg/mL (≈ 935 mM) in data set [3] (30° C.), 440 mg/mL (≈ 1290 mM) in data set [3] (50° C.) and 580 mg/mL (≈ 1690 mM) in data set [3] (70° C.). The “Relative amount of formed glucan, %” value in data set [4] was 2%.
Consider `OC[C@H]1O[C@@](CO)(O[C@H]2O[C@H](CO)[C@@H](O)[C@H](O)[C@H]2O)[C@@H](O)[C@@H]1O` [Sugar], for which the solubility came out at 630 mg/mL (≈ 1840 mM) in data set [3] (10° C.), 680 mg/mL (≈ 1990 mM) in data set [3] (30° C.), 720 mg/mL (≈ 2100 mM) in data set [3] (50° C.) and 740 mg/mL (≈ 2160 mM) in data set [3] (70° C.).
